Laboratory results reported in patent publication US20090306093A1, “METHOD FOR TREATING PATIENT HAVING BENIGN PROSTATE HYPERPLASIA” (KAOHSIUNG MEDICAL UNIVERSITY, priority 2008, published 2009).

Tests used:
[1] = test system: phenylephrine (10 μM) pre-contracted rat isolated prostate; assay: Relaxation of phenylephrine pre-contracted rat isolated prostate strips (isometric tension); settings: for relaxation: 10 μM, 1 hour
Experimental: The rat isolated prostate tissue was prepared as previously described with modifications^[10]. Briefly, Wistar rats (300-400 g) were killed with pentobarbital sodium (30 mg/kg) and the ventral part of their prostates were quickly excised. […] O2 and 5% CO2.
Isometric tension was recorded with a force displacement transducer (UGO BASILE, Model 7004, Italy). After the equilibration period, the strips were primed twice by adding 10 μM of the agonist, phenylephrine, to reach 80-100% of maximum contraction. […] The relaxation on rat prostate by KMUP-1 (0.01-100 μM) and tamsulosin (0.001 nM-100 μM) were also tested by their combination with sildenafil (0.1 μM), respectively. In isolated prostate strips, while stable constriction to phenylephrine was reached, sildenafil (0.1 μM) was pre-incubation for 30 minutes, before the cumulative addition of KMUP-1 (0.01-100 μM) or tamsulosin (0.001 nM-100 μM) to isolated prostate strips. In another experiment, to examine the possible mechanism of action of KMUP-1, rat prostates were pretreated with ODQ (1H-[1,2,4]oxadiazolo[4,3-a]quinoxalin-1-one, 10 μM, sGC inhibitor), RP-8pCPT-cGMPs (10 μM, PKG inhibitor), glibenclamide (10 μM, KATP channel blocker), 4-AP (4-aminopyridine, 100 μM, voltage-dependent K^+ channel blocker), apamin (1 μM, Ca^2+-dependent K^+ channel blocker) and charybdotoxin (ChTX) (0.1 μM, Ca^2+-dependent K^+ channel blocker) for 30 minutes before addition of KMUP-1 (100 μM).

[2] = test system: ROCK2; assay: Western blot of phenylephrine-induced Rho kinase (ROCK2) expression in rat prostate; settings: KMUP-1 10, 100 μM; Y-27632 10 μM; phenylephrine 10 μM
Experimental: In order to examine the expression of Rho kinase in prostate, the prostate strips were pre-incubated with phenylephrine (10 μM) for 30 minutes. After a pre-treatment of phenylephrine, KMUP-1 (10-100 μM) and Y-27632 (10 μM) were further incubated for 30 minutes. After the incubation time, the prostate were extracted with protein extraction reagent (Pierce Biotechnology, Inc., Rockford, Ill., USA.). The PZ-HPV-7 cells were incubated with and without KMUP-1 (0.1-10 μM) at 30 minutes, 8 and 24 hours. They were then washed rapidly with ice-cold PBS, incubated with protein extraction reagent, and scraped from the plates. The prostate tissues and cells were sonicated three times for 10 second each time and centrifuged at 13,000 rpm at 4° C. for 30 minutes. The protein concentrations of supernatants were determined, using bovine serum albumin as the standard. Tissue and cell extract protein were then boiled at a ratio of 4:1 with sample buffer (100 mM Tris, pH 6.8, 20% glycerol, 4% SDS, and 0.2% bromphenol blue). 40-60 μg protein was used in this experiment. Electrophoresis was performed using 10 or 12% SDS-polyacrylamide gel electrophoresis and then transferred to nitrocellulose membranes (Millipore Corporation, Billerica, Mass.). […] The intensity of the bands was measured by densitometry.

[3] = biological target: a1A-adrenergic receptor; settings: data from the reference; cited from earlier work
[4] = test system: cGMP; assay: Determination of cGMP in rat isolated prostate (radioimmunoassay); settings: 100 μM, 1 hour
Experimental: Isolated prostate strips from Wistar rats were prepared to determine prostate levels of cGMP and cAMP. Briefly, prostate strips were respectively incubated with KMUP-1 (10-100 μM), sildenafil (100 μM), and zaprinast (100 μM) in 10 mL Tyrode solution aerated with 95% O2 and 5% CO2 for 1 hour. To examine the possible mechanisms of action of KMUP-1, the rat prostate was pretreated with ODQ (10 μM, sGC inhibitor) and SQ22536 (9-(tetrahydro-2-furanyl)-9H-purin-6-amine, 10 μM, adenylyl cyclase inhibitor) for 30 minutes before KMUP-1 was added. After the incubation, the prostate tissues were extracted with 1 mL of 0.1 N HCl. The extracts were then lyophilized for a further measurement of cyclic GMP or cyclic AMP of each sample, using commercially available radioimmunoassay kits (Amersham Pharmacia Biotech, Buckinghamshire, England).

[5] = test system: sGCa1; assay: Western blot of sGCa1 expression in rat prostate; settings: KMUP-1 10-100 μM; sildenafil, zaprinast 100 μM; 1 hour
Experimental: (§1) Prostate strips were incubated with KMUP-1 (10-100 μM), sildenafil (100 μM) and zaprinast (100 μM) in 10 mL Tyrode solution aerated with 95% O2 and 5% CO2 for 1 hour. To examine the possible mechanisms of KMUP-1 action, the rat prostate were pretreated with ODQ (10 μM), SQ22536 (10 μM) and RP-8pCPT-cGMPs (10 μM) for 30 minutes prior to the addition of KMUP-1 (100 μM).
(§2) In order to examine the expression of Rho kinase in prostate, the prostate strips were pre-incubated with phenylephrine (10 μM) for 30 minutes. After a pre-treatment of phenylephrine, KMUP-1 (10-100 μM) and Y-27632 (10 μM) were further incubated for 30 minutes. After the incubation time, the prostate were extracted with protein extraction reagent (Pierce Biotechnology, Inc., Rockford, Ill., USA.). The PZ-HPV-7 cells were incubated with and without KMUP-1 (0.1-10 μM) at 30 minutes, 8 and 24 hours. They were then washed rapidly with ice-cold PBS, incubated with protein extraction reagent, and scraped from the plates. The prostate tissues and cells were sonicated three times for 10 second each time and centrifuged at 13,000 rpm at 4° C. for 30 minutes. The protein concentrations of supernatants were determined, using bovine serum albumin as the standard. Tissue and cell extract protein were then boiled at a ratio of 4:1 with sample buffer (100 mM Tris, pH 6.8, 20% glycerol, 4% SDS, and 0.2% bromphenol blue). 40-60 μg protein was used in this experiment. Electrophoresis was performed using 10 or 12% SDS-polyacrylamide gel electrophoresis and then transferred to nitrocellulose membranes (Millipore Corporation, Billerica, Mass.). The membrane was blocked with Tris-buffered saline (20 mM Tris and 137 mM NaCl, pH 7.6) containing 0.1% Tween 20 (TTBS) and 5% non-fat milk at room temperature for 1 hour, washed with TTBS, and then incubated overnight at 4° C. in the appropriate primary antibody of PKG (Santa Cruz, 1:200), sGCa1 (Santa Cruz, 1:200), PKA (Abcam, 1:1000), ROCK2 (Upstate, 1:1000), and PDE5A (BD Biosciences, 1:1000), p21 (Upstate, 1:1000). The membranes were washed in TTBS before being incubated with horseradish peroxidase-conjugated antibody against mouse, goat, or rabbit IgG (Santa Cruz, 1:1000) for 1 hour. The membrane was then washed in TTBS and developed with the enhanced chemiluminescence (ECL) for the detection of the specific antigen. The intensity of the bands was measured by densitometry.

[6] = test system: PKG; assay: Western blot of PKG expression in rat prostate; settings: KMUP-1 10, 100 μM; sildenafil, zaprinast 100 μM
Experimental: as §1, §2

[7] = phenylephrine 10 μM pre-contracted

Compound Nc1nc2c(nc(Sc3ccc(Cl)cc3)n2C2O[C@@H]3COP(=O)(O)O[C@H]3[C@H]2O)c(=O)[nH]1 (stereo in doubt) [8-pCPT-cGMP, reference compound] has a relaxation [1, 7] of 35.00±4.40%.
With C[C@@H](N)[C@H]1CC[C@H](C(=O)Nc2ccncc2)CC1 [Y-27632, reference compound] the “phenylephrine-induced Rho kinase expression” value [2] was “protected against phenylephrine-induced Rho kinase expression”.
For COc1cc2nc(N3CCN(C(=O)C4COc5ccccc5O4)CC3)nc(N)c2cc1OC (centres unmarked) [doxazosin, reference compound], the relaxation [1, 7] is listed as 73.00±2.8% and the “Receptor Affinity (pKi) a1A” value [3] is listed as 8.56.
For CCCc1nn(C)c2c(=O)[nH]c(-c3cc(S(=O)(=O)N4CCN(C)CC4)ccc3OCC)nc12 [sildenafil, reference compound], the relaxation ability ([1]; 0.1 μM, phenylephrine 10 μM pre-contracted) was 21.50±2.12%, the relaxation [1, 7] was 50.00±6.37% and the relaxation ability ([1]; fourth value of the sentence, concentration not given) was 78.00±8.02%. The cGMP levels [4] was 3.20±0.61 pmol mg^−1 protein, the “expression of sGCa1” value [5] was “do not significantly induce” and the “expression of PKG” value [6] was “significantly induce”.
For CCOc1ccccc1OCCN[C@H](C)Cc1ccc(OC)c(S(N)(=O)=O)c1 [tamsulosin, reference compound], the relaxation [1, 7] was 107.50±6.76%, the relaxation activity ([1]; 100 μM combined with sildenafil 0.1 μM) was 140.00±10.14% and the relaxation ability ([1]; 100 μM, phenylephrine 10 μM pre-contracted) was 118.00±10.79%. For the same compound, the “Receptor Affinity (pKi) a1A” value [3] was 9.7, the “Selective Ratio a1A/a1B” value [3] was 6.3 and the “Selective Ratio a1A/a1D” value [3] was 0.2.
For CCCOc1ccccc1-c1nc2nn[nH]c2c(=O)[nH]1 [zaprinast, reference compound], the relaxation [1, 7] was 79.00±5.00%, the cGMP levels [4] was 2.23±0.24 pmol mg^−1 protein and the “expression of sGCa1” value [5] was “do not significantly induce”. The “expression of PKG” value [6] was “significantly induce”.
